Laboratory results from article PMC8150913, “Chromene-Containing Aromatic Sulfonamides with Carbonic Anhydrase Inhibitory Properties” (International Journal of Molecular Sciences, 2021).

Columns and labels:
hCA XII = target: T1, hCA XII (Homo sapiens, UniProt O43570); assay: Stopped-flow CA-catalyzed CO2 hydration inhibition assay; type: biochemical; settings: stopped flow technique, mean from three different assays, recombinant enzyme, pH 7.4
T1 construct: made in house
Experimental: (§1) An Applied Photophysics stopped-flow instrument was used for assaying the CA catalyzed CO2 hydration activity. Phenol red (at a concentration of 0.2 mM) was used as an indicator, working at the absorbance maximum of 557 nm, with 20 mM Hepes (pH 7.4) as a buffer, and 20 mM Na2SO4 (for maintaining constant ionic strength), following the initial rates of the CA-catalyzed CO2 hydration reaction for a period of 10–100 s. The CO2 concentrations ranged from 1.7 to 17 mM for the determination of the kinetic parameters and inhibition constants. […] However, the background activity from the uncatalyzed reaction is always subtracted when IC50 values are obtained by using the data analysis software for the stopped flow instrument. […] For each inhibitor, at least six traces of the initial 5–10% of the reaction were used for determining the initial velocity. The uncatalyzed rates were determined in the same manner and subtracted from the total observed rates. Stock solutions of the inhibitor (0.1 mM) were prepared in distilled, deionized water, and dilutions up to 0.01 nM were done thereafter with the assay buffer. Inhibitor and enzyme solutions were preincubated together for 15 min at room temperature prior to the assay, allowing the formation of the E–I complex. The inhibition constants were obtained by non-linear least-squares methods using PRISM 3 and the Cheng-Prusoff equation as reported earlier, which represent the mean from at least three different determinations. All CA isoforms were recombinant proteins obtained in house, as reported earlier.

hCA I = target: T2, hCA I (Homo sapiens, UniProt P00915); assay: as above; type: biochemical; settings: stopped flow technique, mean from three different assays, recombinant enzyme, pH 7.4
T2 construct: made in house
T2 sequence (P00915 whole entry): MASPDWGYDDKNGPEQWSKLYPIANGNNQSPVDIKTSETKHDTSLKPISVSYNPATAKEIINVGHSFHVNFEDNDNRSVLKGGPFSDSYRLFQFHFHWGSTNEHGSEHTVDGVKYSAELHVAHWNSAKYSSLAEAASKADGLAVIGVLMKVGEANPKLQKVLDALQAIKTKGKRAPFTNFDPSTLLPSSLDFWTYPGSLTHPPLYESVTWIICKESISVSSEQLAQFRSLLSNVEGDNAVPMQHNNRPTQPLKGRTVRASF
Experimental: as §1

hCA II = target: T3, hCA II (Homo sapiens, UniProt P00918); assay: as above; type: biochemical; settings: for Ki: stopped flow technique, mean from three different assays, recombinant enzyme, pH 7.4
T3 construct: made in house
Experimental: as §1

hCA IX = target: T4, hCA IX (Homo sapiens, UniProt Q16790); assay: as above; type: biochemical; settings: stopped flow technique, mean from three different assays, recombinant enzyme, pH 7.4
T4 construct: made in house
Experimental: as §1

T1 sequence (O43570 25-354): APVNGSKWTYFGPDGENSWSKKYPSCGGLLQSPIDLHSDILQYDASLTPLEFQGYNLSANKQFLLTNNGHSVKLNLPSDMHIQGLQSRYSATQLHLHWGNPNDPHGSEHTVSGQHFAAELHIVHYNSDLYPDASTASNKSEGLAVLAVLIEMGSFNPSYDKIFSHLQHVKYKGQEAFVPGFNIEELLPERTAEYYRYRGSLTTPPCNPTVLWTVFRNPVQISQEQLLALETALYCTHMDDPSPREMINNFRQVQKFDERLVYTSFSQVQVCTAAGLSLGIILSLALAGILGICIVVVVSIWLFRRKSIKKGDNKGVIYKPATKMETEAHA

Structure (SMILES) | Ki (hCA XII) | Ki (hCA I) | Ki (hCA II) | Ki (hCA IX) | melting point | selectivity index (SI) hCA II compared to hCA I (hCA II; ratio of Ki values) | selectivity index (SI) hCA II compared to hCA XII (hCA II; ratio of Ki values)
Cc1ccc2c(=O)cc(C(=O)Nc3ccc(S(N)(=O)=O)cc3)oc2c1C [5f, 7,8-Dimethyl-4-oxo-N-(4-sulfamoylphenyl)-4H-chromene-2-carboxamide] | 76.3 ± 6 nM | 341 ± 29.6 nM | 9.3 ± 0.5 nM | 19.5 ± 1.6 nM | 328 to 330 °C |  | 
Cc1ccc2c(=O)cc(C(=O)Nc3ccc(S(N)(=O)=O)cc3)oc2c1 [5c, 7-Methyl-4-oxo-N-(4-sulfamoylphenyl)-4H-chromene-2-carboxamide] | 50.8 ± 4.3 nM | 3560 ± 228 nM | 39.5 ± 3.2 nM | 63.4 ± 6.3 nM | 309 to 311 °C |  | 
CCc1ccc2oc(C(=O)Nc3ccc(S(N)(=O)=O)cc3)cc(=O)c2c1 [5d, 6-Ethyl-4-oxo-N-(4-sulfamoylphenyl)-4H-chromene-2-carboxamide] |  |  |  |  | 297 to 299 °C |  | 
Cc1cc2oc(C(=O)Nc3ccc(S(N)(=O)=O)cc3)cc(=O)c2cc1Cl [5j, 6-Chloro-7-methyl-4-oxo-N-(4-sulfamoylphenyl)-4H-chromene-2-carboxamide] | 155 ± 10.1 nM | 580 ± 50.5 nM | 901 ± 75.4 nM | 516 ± 37.2 nM | 305 to 307 °C |  | 
NS(=O)(=O)c1ccc(NC(=O)c2cc(=O)c3cc(Cl)ccc3o2)cc1 [5i, 6-Chloro-4-oxo-N-(4-sulfamoylphenyl)-4H-chromene-2-carboxamide] | 425 ± 41 nM | 2700 ± 265 nM | 66.2 ± 5.8 nM | 51 ± 4.8 nM | 296 to 298 °C |  | 
Cc1cc(C)c2c(=O)cc(C(=O)Nc3ccc(S(N)(=O)=O)cc3)oc2c1 [5g, 5,7-Dimethyl-4-oxo-N-(4-sulfamoylphenyl)-4H-chromene-2-carboxamide] | 46.4 ± 4.4 nM | 682 ± 40.6 nM | 61.4 ± 4.4 nM | 54.7 ± 5 nM | 304 to 306 °C |  | 
Cc1cc2oc(C(=O)Nc3ccc(S(N)(=O)=O)cc3)cc(=O)c2cc1C [5e, 6,7-Dimethyl-4-oxo-N-(4-sulfamoylphenyl)-4H-chromene-2-carboxamide] | 619 ± 36.7 nM | 2890 ± 161 nM | 311 ± 28.3 nM | 299 ± 18.4 nM | 310 to 312 °C |  | 
Cc1cc(C)c2oc(C(=O)Nc3ccc(S(N)(=O)=O)cc3)cc(=O)c2c1 [5h, 6,8-Dimethyl-4-oxo-N-(4-sulfamoylphenyl)-4H-chromene-2-carboxamide] | 26.8 ± 1.4 nM | 505 ± 27 nM | 46.6 ± 2.9 nM | 22.5 ± 1.9 nM | 309 to 311 °C |  | 
NS(=O)(=O)c1ccc(NC(=O)c2cc(=O)c3ccccc3o2)cc1 [5a, 4-Oxo-N-(4-sulfamoylphenyl)-4H-chromene-2-carboxamide] | 20.1 ± 1.7 nM | 525 ± 44.4 nM | 35.1 ± 3.3 nM | 16.6 ± 1.5 nM | 296 to 298 °C |  | 
Cc1ccc2oc(C(=O)Nc3ccc(S(N)(=O)=O)cc3)cc(=O)c2c1 [5b, 6-Methyl-4-oxo-N-(4-sulfamoylphenyl)-4H-chromene-2-carboxamide] | 64.8 ± 6.1 nM | 5310 ± 272 nM | 95.9 ± 8 nM | 77 ± 6.5 nM | 307 to 308 °C |  | 

Now from value to compound:

Ki (hCA XII) | Ki (hCA I) | Ki (hCA II) | Ki (hCA IX) | melting point | selectivity index (SI) hCA II compared to hCA I (hCA II; ratio of Ki values) | selectivity index (SI) hCA II compared to hCA XII (hCA II; ratio of Ki values) | Structure (SMILES)
22.6 ± 1.5 nM | 547 ± 39.2 nM | 51.2 ± 3.6 nM | 51.4 ± 4.5 nM | 282 to 284 °C |  |  | Cc1cc2oc(C(=O)NCCc3ccc(S(N)(=O)=O)cc3)cc(=O)c2cc1C [6h, 6,7-Dimethyl-4-oxo-N-(4-sulfamoylphenethyl)-4H-chromene-2-carboxamide]
337 ± 27.4 nM | 334 ± 17.5 nM | 7.5 ± 0.5 nM | 64.8 ± 3.4 nM | 253 to 255 °C | 44.47 | 44.97 | Cc1ccc2c(=O)cc(C(=O)NCCc3ccc(S(N)(=O)=O)cc3)oc2c1 [6f, 7-Methyl-4-oxo-N-(4-sulfamoylphenethyl)-4H-chromene-2-carboxamide]
320 ± 23.2 nM | 612 ± 49.5 nM | 81.7 ± 4.2 nM | 2040 ± 189 nM | 293 to 295 °C |  |  | Cc1ccc2oc(C(=O)NCc3ccc(S(N)(=O)=O)cc3)cc(=O)c2c1 [6b, 6-Methyl-4-oxo-N-(4-sulfamoylbenzyl)-4H-chromene-2-carboxamide]
148 ± 8.1 nM | 971 ± 82.4 nM | 280 ± 15.5 nM | 183 ± 16.1 nM | 257 to 259 °C |  |  | CCc1ccc2oc(C(=O)NCCc3ccc(S(N)(=O)=O)cc3)cc(=O)c2c1 [6g, 6-Ethyl-4-oxo-N-(4-sulfamoylphenethyl)-4H-chromene-2-carboxamide]
59.4 ± 5 nM | 2650 ± 227 nM | 679 ± 45 nM | 3280 ± 302 nM | 299 to 301 °C |  |  | NS(=O)(=O)c1ccc(CNC(=O)c2cc(=O)c3cc(Cl)ccc3o2)cc1 [6c, 6-Chloro-4-oxo-N-(4-sulfamoylbenzyl)-4H-chromene-2-carboxamide]
31.4 ± 2.6 nM | 4410 ± 347 nM | 143 ± 12.8 nM | 91.1 ± 8.9 nM | 283 to 285 °C |  |  | Cc1cc(C)c2oc(C(=O)NCCc3ccc(S(N)(=O)=O)cc3)cc(=O)c2c1 [6j, 6,8-Dimethyl-4-oxo-N-(4-sulfamoylphenethyl)-4H-chromene-2-carboxamide]
34 ± 2.2 nM | 628 ± 35.5 nM | 219 ± 11.8 nM | 855 ± 49.2 nM | 284 to 286 °C |  |  | NS(=O)(=O)c1ccc(CNC(=O)c2cc(=O)c3ccccc3o2)cc1 [6a, 4-Oxo-N-(4-sulfamoylbenzyl)-4H-chromene-2-carboxamide]
132 ± 11 nM | 214 ± 15.9 nM | 39.2 ± 3.7 nM | 84.5 ± 4.3 nM | 280 to 282 °C |  |  | Cc1ccc2c(=O)cc(C(=O)NCCc3ccc(S(N)(=O)=O)cc3)oc2c1C [6i, 7,8-Dimethyl-4-oxo-N-(4-sulfamoylphenethyl)-4H-chromene-2-carboxamide]
439 ± 32.2 nM | 247 ± 24.3 nM | 36.4 ± 2.1 nM | 72.7 ± 4.3 nM | 257 to 259 °C |  |  | Cc1ccc2oc(C(=O)NCCc3ccc(S(N)(=O)=O)cc3)cc(=O)c2c1 [6e, 6-Methyl-4-oxo-N-(4-sulfamoylphenethyl)-4H-chromene-2-carboxamide]
41.4 ± 3.4 nM | 927 ± 68.9 nM | 91.6 ± 7 nM | 1920 ± 146 nM | 285 to 287 °C |  |  | NS(=O)(=O)c1ccc(CCNC(=O)c2cc(=O)c3cc(Cl)ccc3o2)cc1 [6k, 6-Chloro-4-oxo-N-(4-sulfamoylphenethyl)-4H-chromene-2-carboxamide]
212 ± 13.7 nM | 322 ± 27.9 nM | 16.6 ± 1.2 nM | 81 ± 7.7 nM | 248 to 250 °C |  |  | NS(=O)(=O)c1ccc(CCNC(=O)c2cc(=O)c3ccccc3o2)cc1 [6d, 4-Oxo-N-(4-sulfamoylphenethyl)-4H-chromene-2-carboxamide]
